Consider 14 compounds from patent US7060683B2, “Hydroxamate-containing cysteine and serine protease inhibitors” (Cephalon, Inc., priority 1998, dated 2006).

The target in this test is T1, Recombinant human calpain I (Homo sapiens, UniProt P07384).
T1 construct: made in house
T1 sequence (P07384 1-714): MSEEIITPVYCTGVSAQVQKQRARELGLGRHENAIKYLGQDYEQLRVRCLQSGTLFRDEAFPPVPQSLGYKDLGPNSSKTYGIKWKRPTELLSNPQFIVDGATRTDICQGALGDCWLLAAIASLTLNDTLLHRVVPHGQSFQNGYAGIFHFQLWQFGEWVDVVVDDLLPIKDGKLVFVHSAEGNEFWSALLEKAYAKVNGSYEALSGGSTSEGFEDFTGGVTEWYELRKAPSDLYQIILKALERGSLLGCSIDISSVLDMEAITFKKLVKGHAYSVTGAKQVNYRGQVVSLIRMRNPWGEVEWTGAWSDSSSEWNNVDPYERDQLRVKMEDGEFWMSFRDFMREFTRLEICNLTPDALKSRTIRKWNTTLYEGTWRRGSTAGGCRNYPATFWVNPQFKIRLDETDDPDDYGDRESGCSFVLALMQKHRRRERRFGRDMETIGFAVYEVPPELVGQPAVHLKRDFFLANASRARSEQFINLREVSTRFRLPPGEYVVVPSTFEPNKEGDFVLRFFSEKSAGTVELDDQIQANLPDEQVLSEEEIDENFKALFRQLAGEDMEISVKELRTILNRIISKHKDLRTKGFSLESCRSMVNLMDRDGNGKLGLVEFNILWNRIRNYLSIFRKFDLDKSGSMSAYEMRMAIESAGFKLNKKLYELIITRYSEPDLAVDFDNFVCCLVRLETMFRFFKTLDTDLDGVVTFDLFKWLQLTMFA
T1 sequence (P04632 1-268 partner): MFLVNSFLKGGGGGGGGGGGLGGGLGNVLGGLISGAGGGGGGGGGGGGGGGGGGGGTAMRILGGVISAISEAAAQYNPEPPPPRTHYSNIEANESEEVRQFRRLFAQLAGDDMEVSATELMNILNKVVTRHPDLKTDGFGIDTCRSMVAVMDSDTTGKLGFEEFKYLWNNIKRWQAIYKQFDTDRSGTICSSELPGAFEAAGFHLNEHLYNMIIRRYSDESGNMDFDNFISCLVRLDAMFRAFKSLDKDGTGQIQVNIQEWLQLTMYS
Description: Inhibition of Calpain (Succ-Leu-Tyr-MNA substrate hydrolysis). Type of test: biochemical. The conditions noted are these: 0.2 mM Succ-Leu-Tyr-MNA, pH 7.5, five to seven concentrations. The procedure: To evaluate inhibitory activity, stock solutions (40 times concentrated) of each compound to be tested were prepared in 100% anhydrous DMSO and 5 μL of each inhibitor preparation were aliquoted into each of three wells of a 96-well plate. Recombinant human calpain I, prepared by the method of Meyer et al. (Biochem., J. 1996, 314: 511–519), was diluted into assay buffer (i.e., 50 mM Tris, 50 mM NaCl, 1 mM EDTA, 1 mM EGTA, and 5 mM β-mercaptoethanol, pH 7.5, including 0.2 mM Succ-Leu-Tyr-MNA), and 175 μl was aliquoted into the same wells containing the independent inhibitor stocks as well as to positive control wells containing 5 μl DMSO, but no compound. To start the reaction, 20 μl of 50 mM CaCl2 in assay buffer was added to all wells of the plate, excepting three, which were used as background signal baseline controls. Substrate hydrolysis was monitored every 5 minutes for a total of 30 minutes.
Inhibition of calpain I activity was calculated as the percent decrease in the rate of substrate hydrolysis in the presence of inhibitor relative to the rate in its absence. Comparison between the inhibited and control rates was made within the linear range for substrate hydrolysis. The IC50s of inhibitors (concentration yielding 50% inhibition) were determined from the percent decrease in rates of substrate hydrolysis in the presence of five to seven different concentrations of the test compound. The results were plotted as percent inhibition versus log inhibitor concentration, and the IC50 was calculated by fitting the data to the four-parameter logistic equation shown below using the program GraphPad Prism (GraphPad Software, Inc., San Diego, Calif.). y=d+[(a−d)/(1+(x/c)^b)]
The parameters a, b, c, and d are defined as follows: a is % inhibition in the absence of inbibitor, b is the slope, c is the IC50, and d is the % innibition at an infinite concentration of inhibitor.

By IC50 is commonly meant the midpoint of a concentration-inhibition curve. As to `CONC(=O)C(=O)[C@H](Cc1ccccc1)NC(=O)[C@H](CC(C)C)NC(=O)OCc1ccccc1` [Example 1, Cbz-Leu-Phe-CONHOCH3], the IC50 was 10 nM.

As for `CCONC(=O)C(=O)[C@H](Cc1ccccc1)NC(=O)[C@H](CC(C)C)NC(=O)OCc1ccccc1` [Example 2, Cbz-Leu-Phe-CONHOEt], the IC50 is 19 nM.

For `CC(C)C[C@H](NC(=O)OCc1ccccc1)C(=O)N[C@@H](Cc1ccccc1)C(=O)C(=O)NOCc1ccccc1` [Example 3, Cbz-Leu-Phe-CONHOBn], the IC50 came out at 6 nM.

With `CC(C)C[C@H](NC(=O)OCc1ccccc1)C(=O)N[C@@H](Cc1ccccc1)C(=O)C(=O)NOCc1c(F)c(F)c(F)c(F)c1F` [Example 4, Cbz-Leu-Phe-CONHOCH2C6F5], the concentration for half-maximal inhibition (IC50) amounted to 17 nM.

On to `CC(C)C[C@H](NC(=O)OCc1ccccc1)C(=O)N[C@@H](Cc1ccccc1)C(=O)C(=O)NOC(C)(C)C` [Example 5, Cbz-Leu-Phe-CONHOtBu], for which the IC50 is 26 nM.

For `CC(C)C[C@H](NC(=O)OCc1ccccc1)C(=O)N[C@@H](Cc1ccccc1)C(=O)C(=O)NOC1CCC(C)CC1` (stereo partly drawn) [Example 6, Cbz-Leu-Phe-CONHO(4-methylcyclohexane)], the IC50 turned out to be 21 nM.

As to `COC[C@H](NC(=O)[C@@H](COCc1ccccc1)NS(C)(=O)=O)C(=O)C(=O)NOCc1ccccc1` [Example 7, CH3SO2-D-Ser(Bn)-Ser(Me)-CONHOBn], the IC50 is 152 nM.

As for `CS(=O)(=O)N[C@H](COCc1ccccc1)C(=O)N[C@@H](Cc1ccccc1)C(=O)C(=O)NOCc1ccccc1` [Example 8, CH3SO2-D-Ser(Bn)-Phe-CONHOBn], the IC50 turned out to be 28 nM.

Regarding `CCONC(=O)C(=O)[C@H](Cc1ccccc1)NC(=O)[C@@H](COCc1ccccc1)NS(C)(=O)=O` [Example 9], the IC50 came out at 56 nM.

Regarding `CCCC[C@H](NC(=O)[C@@H](NC(=O)OCc1ccccc1)C(C)C)C(=O)C(=O)NOCc1ccccc1` [Example 11, Cbz-Val-Nle-CONHOBn], the IC50 was found to be 21 nM.

For `CONC(=O)C(=O)[C@H](Cc1ccccc1)NC(=O)[C@H](CC(C)C)NC(=O)[C@H](CC(C)C)NC(=O)OCc1ccccc1` [Example 12, Cbz-Leu-Leu-Phe-CONHOCH3], the IC50 was found to be 20 nM.

For `CC(C)C[C@H](NC(=O)OCc1ccccc1)C(=O)N[C@@H](CC(C)C)C(=O)N[C@@H](Cc1ccccc1)C(=O)C(=O)NOCc1ccccc1` [Example 13, Cbz-Leu-Leu-Phe-CONHOBn], the 50% inhibitory concentration (IC50) is 17 nM.

As to `CCCCONC(=O)C(=O)[C@H](Cc1ccccc1)NC(=O)[C@H](CC(C)C)NC(=O)OCc1ccccc1` [Example 14, Cbz-Leu-Phe-CONHOBu], the 50% inhibitory concentration (IC50) was determined as 183 nM.

Regarding `CCCC[C@H](NC(=O)[C@H](Cc1ccccc1)NC(=O)c1ccccc1)C(=O)C(=O)NOCC` [Example 15, PhCO-Phe-Nle-CONHOEt], the IC50 worked out at 193 nM.
